# Assay results reported in patent publication US20220177508A1, “C10-Cyclic Substituted 13-Membered Macrolides and Uses Thereof” (Zikani Therapeutics, Inc., priority 2018, published 2022).
# Key:
# Format in all cases: cell-based
# P. aeruginosa MP-3 = assay: Broth dilution MIC determination (CLSI), P. aeruginosa MP-3; conditions: Pseudomonas aeruginosa, MP3; strain MP-3, broth dilution
# K. pneumoniae MP-546 = assay: Broth dilution MIC determination (CLSI), K. pneumoniae MP-546; conditions: Klebsiella pneumoniae, MP546; strain MP-546, broth dilution
# E. coli MP-4 = assay: Broth dilution MIC determination (CLSI), E. coli MP-4; conditions: Escherichia coli, MP4; strain MP-4, broth dilution; read-out: MIC E. coli MP-4
# S. aureus MP-12 = assay: Broth dilution MIC determination (CLSI), S. aureus MP-12; conditions: Staphylococcus aureus, MP12; strain MP-12, broth dilution
# A. baumannii MP-15 = assay: Broth dilution MIC determination (CLSI), A. baumannii MP-15; conditions: Acinetobacter baumannii, MP15; strain MP-15, broth dilution; read-out: MIC A. baumanii MP-15
Compound,MIC (P. aeruginosa MP-3),MIC (K. pneumoniae MP-546),MIC (E. coli MP-4),MIC (S. aureus MP-12),MIC (A. baumannii MP-15)
"CO[C@]1(C)C[C@@H](C)CN(C)[C@@H](C2CCCCC2)COC(=O)C(C)(C)C(=O)[C@H](C)[C@H]1O[C@@H]1O[C@H](C)C[C@H](N(C)C)[C@H]1O [Compound 102, (3S,6R,8R,9R,10R)-3-cyclohexyl-9-(((2S,3R,4S,6R)-4-(dimethylamino)-3-hydroxy-6-methyltetrahydro-2H-pyran-2-yl)oxy)-8-methoxy-4,6,8,10,12,12-hexamethyl-1-oxa-4-azacyclotridecane-11,13-dione]",> 32 µg/mL,> 32 µg/mL,> 32 µg/mL,> 32 µg/mL,> 32 µg/mL
"CO[C@]1(C)C[C@@H](C)CN(C)[C@H]([C@H]2CCCN(C(C)C)C2)COC(=O)C(C)(C)C(=O)[C@H](C)[C@H]1O[C@@H]1O[C@H](C)C[C@H](N(C)C)[C@H]1O [Compound 104, (3R,6R,8R,9R,10R)-9-(((2S,3R,4S,6R)-4-(dimethylamino)-3-hydroxy-6-methyltetrahydro-2H-pyran-2-yl)oxy)-3-((S)-1-isopropylpiperidin-3-yl)-8-methoxy-4,6,8,10,12,12-hexamethyl-1-oxa-4-azacyclotridecane-11,13-dione]",> 32 µg/mL,4 to 32 µg/mL,< 4 µg/mL,4 to 32 µg/mL,> 32 µg/mL
"CCCN1C[C@H](C)C[C@@](C)(OC)[C@H](O[C@@H]2O[C@H](C)C[C@H](N(C)C)[C@H]2O)[C@@H](C)C(=O)C(C)(C)C(=O)OC[C@H]1C1CN(CC(C)C)C1 [Compound 105, (3R,6R,8R,9R,10R)-9-(((2S,3R,4S,6R)-4-(dimethylamino)-3-hydroxy-6-methyltetrahydro-2H-pyran-2-yl)oxy)-3-(1-isobutylazetidin-3-yl)-8-methoxy-6,8,10,12,12-pentamethyl-4-propyl-1-oxa-4-azacyclotridecane-11,13-dione]",> 32 µg/mL,> 32 µg/mL,4 to 32 µg/mL,> 32 µg/mL,> 32 µg/mL
"CO[C@]1(C)C[C@@H](C)CN(C)[C@H](C2CCN(C(=O)CNCC(C)C)CC2)COC(=O)C(C)C(=O)[C@H](C)[C@H]1O[C@@H]1O[C@H](C)C[C@H](N(C)C)[C@H]1O (stereo partly drawn) [Compound 107, (3R,6R,8R,9R,10R)-9-(((2S,3R,4S,6R)-4-(dimethylamino)-3-hydroxy-6-methyltetrahydro-2H-pyran-2-yl)oxy)-3-(1-(isobutylglycyl)piperidin-4-yl)-8-methoxy-4,6,8,10,12-pentamethyl-1-oxa-4-azacyclotridecane-11,13-dione]",> 32 µg/mL,4 to 32 µg/mL,4 to 32 µg/mL,> 32 µg/mL,> 32 µg/mL
"CO[C@]1(C)C[C@@H](C)CN(C)[C@@H](C2CCN(C(C)C)CC2)COC(=O)C(C)(C)C(=O)[C@H](C)[C@H]1O[C@@H]1O[C@H](C)C[C@H](N(C)C)[C@H]1O [Compound 116, (3S,6R,8R,9R,10R)-9-(((2S,3R,4S,6R)-4-(dimethylamino)-3-hydroxy-6-methyltetrahydro-2H-pyran-2-yl)oxy)-3-(1-isopropylpiperidin-4-yl)-8-methoxy-4,6,8,10,12,12-hexamethyl-1-oxa-4-azacyclotridecane-11,13-dione]",> 32 µg/mL,< 4 µg/mL,< 4 µg/mL,4 to 32 µg/mL,> 32 µg/mL
"CO[C@]1(C)C[C@@H](C)CN(C)[C@H](C2CCN(CC(C)C)CC2)COC(=O)C(C)(C)C(=O)[C@H](C)[C@H]1O[C@@H]1O[C@H](C)C[C@H](N(C)C)[C@H]1O [Compound 121, (3R,6R,8R,9R,10R)-9-(((2S,3R,4S,6R)-4-(dimethylamino)-3-hydroxy-6-methyltetrahydro-2H-pyran-2-yl)oxy)-3-(1-isobutylpiperidin-4-yl)-8-methoxy-4,6,8,10,12,12-hexamethyl-1-oxa-4-azacyclotridecane-11,13-dione]",> 32 µg/mL,< 4 µg/mL,< 4 µg/mL,4 to 32 µg/mL,> 32 µg/mL

# Results, then the compound that gave them:
MIC (P. aeruginosa MP-3),MIC (K. pneumoniae MP-546),MIC (E. coli MP-4),MIC (S. aureus MP-12),MIC (A. baumannii MP-15),Compound
> 32 µg/mL,< 4 µg/mL,< 4 µg/mL,4 to 32 µg/mL,4 to 32 µg/mL,"CO[C@]1(C)C[C@@H](C)CN(C)[C@H](C2CN(Cc3ccccc3)C2)COC(=O)C(C)(C)C(=O)[C@H](C)[C@H]1O[C@@H]1O[C@H](C)C[C@H](N(C)C)[C@H]1O [Compound 101, (3R,6R,8R,9R,10R)-3-(1-benzylazetidin-3-yl)-9-(((2S,3R,4S,6R)-4-(dimethylamino)-3-hydroxy-6-methyltetrahydro-2H-pyran-2-yl)oxy)-8-methoxy-4,6,8,10,12,12-hexamethyl-1-oxa-4-azacyclotridecane-11,13-dione]"
> 32 µg/mL,> 32 µg/mL,> 32 µg/mL,> 32 µg/mL,> 32 µg/mL,"CO[C@]1(C)C[C@@H](C)CN(C)[C@H]([C@@H]2CCCN2C)COC(=O)C(C)(C)C(=O)[C@H](C)[C@H]1O[C@@H]1O[C@H](C)C[C@H](N(C)C)[C@H]1O [Compound 106, (3R,6R,8R,9R,10R)-9-(((2S,3R,4S,6R)-4-(dimethylamino)-3-hydroxy-6-methyltetrahydro-2H-pyran-2-yl)oxy)-8-methoxy-4,6,8,10,12,12-hexamethyl-3-((S)-1-methylpyrrolidin-2-yl)-1-oxa-4-azacyclotridecane-11,13-dione]"
> 32 µg/mL,< 4 µg/mL,< 4 µg/mL,> 32 µg/mL,> 32 µg/mL,"CO[C@]1(C)C[C@@H](C)CN(C)[C@@H]([C@@H]2CCN(C)C2)COC(=O)C(C)(C)C(=O)[C@H](C)[C@H]1O[C@@H]1O[C@H](C)C[C@H](N(C)C)[C@H]1O [Compound 109, (3S,6R,8R,9R,10R)-9-(((2S,3R,4S,6R)-4-(Dimethylamino)-3-hydroxy-6-methyltetrahydro-2H-pyran-2-yl)oxy)-8-methoxy-4,6,8,10,12,12-hexamethyl-3-((R)-1-methylpyrrolidin-3-yl)-1-oxa-4-azacyclotridecane-11,13-dione]"
> 32 µg/mL,< 4 µg/mL,< 4 µg/mL,4 to 32 µg/mL,> 32 µg/mL,"CO[C@]1(C)C[C@@H](C)CN(C)[C@@H]([C@@H]2CCN(CC(C)C)C2)COC(=O)C(C)(C)C(=O)[C@H](C)[C@H]1O[C@@H]1O[C@H](C)C[C@H](N(C)C)[C@H]1O [Compound 110, (3S,6R,8R,9R,10R)-9-(((2S,3R,4S,6R)-4-(dimethylamino)-3-hydroxy-6-methyltetrahydro-2H-pyran-2-yl)oxy)-3-((R)-1-isobutylpyrrolidin-3-yl)-8-methoxy-4,6,8,10,12,12-hexamethyl-1-oxa-4-azacyclotridecane-11,13-dione]"
> 32 µg/mL,< 4 µg/mL,< 4 µg/mL,4 to 32 µg/mL,4 to 32 µg/mL,CO[C@]1(C)C[C@@H](C)CN(C)[C@H](C2CN(CC(C)C)C2)COC(=O)C(C)(C)C(=O)[C@H](C)[C@H]1O[C@@H]1O[C@H](C)C[C@H](N(C)C)[C@H]1O [Compound 112]
> 32 µg/mL,> 32 µg/mL,4 to 32 µg/mL,> 32 µg/mL,> 32 µg/mL,"CO[C@]1(C)C[C@@H](C)CN(C)[C@H]([C@@H]2CCCN(C)C2)COC(=O)C(C)(C)C(=O)[C@H](C)[C@H]1O[C@@H]1O[C@H](C)C[C@H](N(C)C)[C@H]1O [Compound 113, (3R,6R,8R,9R,10R)-9-(((2S,3R,4S,6R)-4-(dimethylamino)-3-hydroxy-6-methyltetrahydro-2H-pyran-2-yl)oxy)-8-methoxy-4,6,8,10,12,12-hexamethyl-3-((R)-1-methylpiperidin-3-yl)-1-oxa-4-azacyclotridecane-11,13-dione]"
> 32 µg/mL,4 to 32 µg/mL,4 to 32 µg/mL,> 32 µg/mL,> 32 µg/mL,"CCN1CCC[C@@H]([C@@H]2COC(=O)C(C)(C)C(=O)[C@H](C)[C@@H](O[C@@H]3O[C@H](C)C[C@H](N(C)C)[C@H]3O)[C@](C)(OC)C[C@@H](C)CN2C)C1 [Compound 117, (3R,6R,8R,9R,10R)-9-(((2S,3R,4S,6R)-4-(dimethylamino)-3-hydroxy-6-methyltetrahydro-2H-pyran-2-yl)oxy)-3-((R)-1-ethylpiperidin-3-yl)-8-methoxy-4,6,8,10,12,12-hexamethyl-1-oxa-4-azacyclotridecane-11,13-dione]"
> 32 µg/mL,> 32 µg/mL,> 32 µg/mL,> 32 µg/mL,> 32 µg/mL,"CO[C@]1(C)C[C@@H](C)CN(C(=O)OCc2ccccc2)[C@H](C2CCN(C(C)C)CC2)COC(=O)C(C)(C)C(=O)[C@H](C)[C@H]1O[C@@H]1O[C@H](C)C[C@H](N(C)C)[C@H]1O [Compound 118, Benzyl (3R,6R,8R,9R,10R)-9-(((2S,3R,4S,6R)-4-(dimethylamino)-3-hydroxy-6-methyltetrahydro-2H-pyran-2-yl)oxy)-3-(1-isopropylpiperidin-4-yl)-8-methoxy-6,8,10,12,12-pentamethyl-11,13-dioxo-1-oxa-4-azacyclotridecane-4-carboxylate]"
> 32 µg/mL,4 to 32 µg/mL,< 4 µg/mL,4 to 32 µg/mL,> 32 µg/mL,"CO[C@]1(C)C[C@@H](C)CN(C)[C@H]([C@@H]2CCN(CC(C)C)C2)COC(=O)C(C)(C)C(=O)[C@H](C)[C@H]1O[C@@H]1O[C@H](C)C[C@H](N(C)C)[C@H]1O [Compound 123, (3R,6R,8R,9R,10R)-9-(((2S,3R,4S,6R)-4-(dimethylamino)-3-hydroxy-6-methyltetrahydro-2H-pyran-2-yl)oxy)-3-((R)-1-isobutylpyrrolidin-3-yl)-8-methoxy-4,6,8,10,12,12-hexamethyl-1-oxa-4-azacyclotridecane-11,13-dione]"
